According to ChEMBL document CHEMBL3045272, “Synthesis and fungicidal activities of novel bis(trifluoromethyl)phenyl-based strobilurins” (J Agric Food Chem, 2008):
In brackets after ≈: the same amount, converted by molar mass.

Key:
Blumeria graminis [1] = experiment: Fungicidal activity against Blumeria graminis infected compound pre-treated wheat plants assessed as disease preventive activity at 1.5 ppm measured after 1 or 2 weeks; format: functional
Blumeria graminis [2] = experiment: Fungicidal activity against Blumeria graminis infected compound pre-treated wheat plants assessed as disease preventive activity at 3.1 ppm measured after 1 or 2 weeks; format: functional
Blumeria graminis [3] = experiment: Fungicidal activity against Blumeria graminis infected compound pre-treated wheat plants assessed as disease preventive activity at 6.2 ppm measured after 1 or 2 weeks; format: functional
Blumeria graminis [4] = experiment: Fungicidal activity against Blumeria graminis infected compound pre-treated wheat plants assessed as disease preventive activity at 500 ppm measured after 1 or 2 weeks; format: functional
Blumeria graminis [5] = experiment: Fungicidal activity against Blumeria graminis infected compound pre-treated wheat plants assessed as disease preventive activity at 100 ppm measured after 1 or 2 weeks; format: functional
Podosphaera fuliginea [6] = experiment: Fungicidal activity against Podosphaera fuliginea infected cucumber plants exposed to compound treatment 1 day post infection assessed as disease curative activity measured after 1 or 2 weeks; format: functional, organism-based
Podosphaera fuliginea [7] = experiment: Fungicidal activity against Podosphaera fuliginea infected cucumber plants exposed to compound treatment 1 day post infection assessed as disease curative activity at 0.78 mg/L measured after 1 or 2 weeks; format: functional
Podosphaera fuliginea [8] = experiment: Fungicidal activity against Podosphaera fuliginea infected cucumber plants exposed to compound treatment 1 day post infection assessed as disease curative activity at 1.56 mg/L measured after 1 or 2 weeks; format: functional
Blumeria graminis [9] = experiment: Fungicidal activity against Blumeria graminis infected compound pre-treated wheat plants assessed as disease preventive activity at 0.78 mg/L measured after 1 or 2 weeks; format: functional
Blumeria graminis [10] = experiment: Fungicidal activity against Blumeria graminis infected compound pre-treated wheat plants assessed as disease preventive activity at 1.56 mg/L measured after 1 or 2 weeks; format: functional
Blumeria graminis [11] = experiment: Fungicidal activity against Blumeria graminis infected compound pre-treated wheat plants assessed as disease preventive activity at 3.12 mg/L measured after 1 or 2 weeks; format: functional
Blumeria graminis [12] = experiment: Fungicidal activity against Blumeria graminis infected compound pre-treated wheat plants assessed as disease preventive activity at 6.25 mg/L measured after 1 or 2 weeks; format: functional
Podosphaera fuliginea [13] = experiment: Fungicidal activity against Podosphaera fuliginea infected cucumber plants exposed to compound treatment 1 day post infection assessed as disease curative activity at 3.12 mg/L measured after 1 or 2 weeks; format: functional
Podosphaera fuliginea [14] = experiment: Fungicidal activity against Podosphaera fuliginea infected cucumber plants exposed to compound treatment 1 day post infection assessed as disease curative activity at 6.25 mg/L measured after 1 or 2 weeks; format: functional
Blumeria graminis [15] = experiment: Fungicidal activity against Blumeria graminis infected wheat plants exposed to compound treatment 1 day post infection assessed as disease curative activity measured after 1 or 2 weeks; format: functional, organism-based
Blumeria graminis [16] = experiment: Fungicidal activity against Blumeria graminis infected wheat plants exposed to compound treatment 1 day post infection assessed as disease curative activity at 1.56 mg/L measured after 1 or 2 weeks; format: functional
Blumeria graminis [17] = experiment: Fungicidal activity against Blumeria graminis infected wheat plants exposed to compound treatment 1 day post infection assessed as disease curative activity at 0.78 mg/L measured after 1 or 2 weeks; format: functional
Blumeria graminis [18] = experiment: Fungicidal activity against Blumeria graminis infected wheat plants exposed to compound treatment 1 day post infection assessed as disease curative activity at 3.12 mg/L measured after 1 or 2 weeks; format: functional
Blumeria graminis [19] = experiment: Fungicidal activity against Blumeria graminis infected wheat plants exposed to compound treatment 1 day post infection assessed as disease curative activity at 6.25 mg/L measured after 1 or 2 weeks; format: functional
Podosphaera fuliginea [20] = experiment: Fungicidal activity against Podosphaera fuliginea infected compound pre-treated cucumber plants assessed as disease preventive activity at 0.78 mg/L measured after 1 or 2 weeks; format: functional
Podosphaera fuliginea [21] = experiment: Fungicidal activity against Podosphaera fuliginea infected compound pre-treated cucumber plants assessed as disease preventive activity at measured after 1 or 2 weeks; format: functional, organism-based
Podosphaera fuliginea [22] = experiment: Fungicidal activity against Podosphaera fuliginea infected compound pre-treated cucumber plants assessed as disease preventive activity at 1.56 mg/L measured after 1 or 2 weeks; format: functional
Podosphaera fuliginea [23] = experiment: Fungicidal activity against Podosphaera fuliginea infected compound pre-treated cucumber plants assessed as disease preventive activity at 3.12 mg/L measured after 1 or 2 weeks; format: functional
Podosphaera fuliginea [24] = experiment: Fungicidal activity against Podosphaera fuliginea infected compound pre-treated cucumber plants assessed as disease preventive activity at 6.25 mg/L measured after 1 or 2 weeks; format: functional
Blumeria graminis [25] = experiment: Fungicidal activity against Blumeria graminis infected compound pre-treated wheat plants assessed as disease preventive activity measured after 1 or 2 weeks; format: functional, organism-based

CCO/C(=N\OCc1ccccc1/C(=C\OC)C(=O)OC)c1cc(C(F)(F)F)cc(C(F)(F)F)c1
Activity (Blumeria graminis [1]): 35% | Activity (Blumeria graminis [2]): 60% | Activity (Blumeria graminis [3]): 90% | Activity (Blumeria graminis [4]): 100% | Activity (Blumeria graminis [5]): 100%

CNC(=O)/C(=N/OC)c1ccccc1CO/N=C(\OC)c1cc(C(F)(F)F)cc(C(F)(F)F)c1
Activity (Blumeria graminis [4]): 90%

CO/N=C(/C1=NOCCO1)c1ccccc1CO/N=C(\OC)c1cc(C(F)(F)F)cc(C(F)(F)F)c1
EC50 (Podosphaera fuliginea [6]): 0.8 µg/mL (≈ 1.54 µM) | EC90 (Podosphaera fuliginea [6]): 1.5 µg/mL (≈ 2.89 µM) | Activity (Podosphaera fuliginea [7]): 60% | Activity (Podosphaera fuliginea [8]): 80% | Activity (Blumeria graminis [9]): 30% | Activity (Blumeria graminis [10]): 75% | Activity (Blumeria graminis [11]): 98% | Activity (Blumeria graminis [12]): 100% | Activity (Blumeria graminis [1]): 95% | Activity (Blumeria graminis [2]): 96% | Activity (Blumeria graminis [3]): 100% | Activity (Podosphaera fuliginea [13]): 100% | Activity (Podosphaera fuliginea [14]): 100% | EC50 (Blumeria graminis [15]): 1 µg/mL (≈ 1.93 µM) | EC90 (Blumeria graminis [15]): 2.4 µg/mL (≈ 4.62 µM) | Activity (Blumeria graminis [16]): 70% | Activity (Blumeria graminis [17]): 35% | Activity (Blumeria graminis [18]): 90% | Activity (Blumeria graminis [19]): 100% | Activity (Podosphaera fuliginea [20]): 55% | EC50 (Podosphaera fuliginea [21]): 0.8 µg/mL (≈ 1.54 µM) | EC90 (Podosphaera fuliginea [21]): 1.6 µg/mL (≈ 3.08 µM) | Activity (Podosphaera fuliginea [22]): 75% | Activity (Podosphaera fuliginea [23]): 100% | Activity (Podosphaera fuliginea [24]): 100% | EC50 (Blumeria graminis [25]): 0.9 µg/mL (≈ 1.73 µM) | EC90 (Blumeria graminis [25]): 2 µg/mL (≈ 3.85 µM) | Activity (Blumeria graminis [4]): 100% | Activity (Blumeria graminis [5]): 100%

CO/N=C(/C(=O)OC)c1ccccc1CO/N=C(\OC)c1cc(C(F)(F)F)cc(C(F)(F)F)c1
Activity (Blumeria graminis [1]): 80% | Activity (Blumeria graminis [2]): 98% | Activity (Blumeria graminis [3]): 100% | Activity (Blumeria graminis [4]): 100% | Activity (Blumeria graminis [5]): 100%

COC(=O)N(OC)c1ccccc1CO/N=C(\OC)c1cc(C(F)(F)F)cc(C(F)(F)F)c1
Activity (Blumeria graminis [1]): 10% | Activity (Blumeria graminis [2]): 60% | Activity (Blumeria graminis [3]): 80% | Activity (Blumeria graminis [4]): 100% | Activity (Blumeria graminis [5]): 100%

CN/C(=N\OCc1ccccc1/C(=C\OC)C(=O)OC)c1cc(C(F)(F)F)cc(C(F)(F)F)c1
Activity (Blumeria graminis [1]): 25% | Activity (Blumeria graminis [2]): 65% | Activity (Blumeria graminis [3]): 90% | Activity (Blumeria graminis [4]): 100% | Activity (Blumeria graminis [5]): 100%

CN/C(=N\OCc1ccccc1/C(=N\OC)C(=O)OC)c1cc(C(F)(F)F)cc(C(F)(F)F)c1
Activity (Blumeria graminis [1]): 70% | Activity (Blumeria graminis [2]): 90% | Activity (Blumeria graminis [3]): 93% | Activity (Blumeria graminis [4]): 100% | Activity (Blumeria graminis [5]): 100%

CO/C=C(/C(=O)OC)c1ccccc1CO/N=C(\N)c1cc(C(F)(F)F)cc(C(F)(F)F)c1
Activity (Blumeria graminis [1]): 40% | Activity (Blumeria graminis [2]): 75% | Activity (Blumeria graminis [3]): 90% | Activity (Blumeria graminis [4]): 100% | Activity (Blumeria graminis [5]): 95%

CO/N=C(/C(=O)OC)c1ccccc1CO/N=C(\N)c1cc(C(F)(F)F)cc(C(F)(F)F)c1
Activity (Blumeria graminis [4]): 30%

CCO/C(=N\OCc1ccccc1/C(=N\OC)C(=O)OC)c1cc(C(F)(F)F)cc(C(F)(F)F)c1
Activity (Blumeria graminis [1]): 15% | Activity (Blumeria graminis [2]): 50% | Activity (Blumeria graminis [3]): 80% | Activity (Blumeria graminis [4]): 100% | Activity (Blumeria graminis [5]): 100%

CCS/C(=N\OCc1ccccc1/C(=C\OC)C(=O)OC)c1cc(C(F)(F)F)cc(C(F)(F)F)c1
Activity (Blumeria graminis [4]): 85%

CCS/C(=N\OCc1ccccc1/C(=N\OC)C(=O)OC)c1cc(C(F)(F)F)cc(C(F)(F)F)c1
Activity (Blumeria graminis [4]): 85%
